Measured values published in patent publication US10793563B2, “GCN2 inhibitors and uses thereof” (Merck Patent GmbH, priority 2018, dated 2020).
Like-named read-outs stand apart in the source and are kept apart here.

What was measured:
[1] = biological target: GCN2 kinase (Homo sapiens (Human), UniProt Q9P2K8); test: GCN2 Enzyme Inhibition Assay (Transcreener ADP2 fluorescence polarization); type: biochemical; settings: 280 μM ATP, 200 μM (RS)7 peptide, 4 nM GCN2, 25° C.; for Ki: Ki(app)
Outline: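 Transcreener ADP2 fluorescence polarization detection of ADP from 4 nM GCN2 with (RS)7 substrate in 25 mM Tris-HCl pH 7.5, 50 mM NaCl, 10 mM MgCl2, 1 mM DTT. Compound pre-incubated with enzyme 10 min at 25 °C; reaction started by ATP, run 1 h at 25 °C. IC50 and Ki(app) by tight-binding fit.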

[2] = biological target: intracellular GCN2 (phosphorylation of the GCN2 substrate eIF2α) (Homo sapiens (Human), UniProt Q9P2K8); test: GCN2 Cellular Inhibition Assay (AlphaScreen SureFire P-eIF2α Ser51, borrelidin-treated U2OS cells); type: cell-based; settings: 10 μM borrelidin, 1 h
Outline: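 U2OS cells adhered overnight, then given compound (top 40 μM, 4-fold serial dilutions) plus 10 μM borrelidin for 1 h at 37 °C. Lysates assayed for eIF2α phospho-Ser51 by AlphaScreen SureFire; % inhibition versus borrelidin-only wells.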

[3] = phosphorylated eIF2α Ser51, read-out: GCN2 Biomarker (IC50)

Sequence of intracellular GCN2 (phosphorylation of the GCN2 substrate eIF2α) (Q9P2K8 whole entry): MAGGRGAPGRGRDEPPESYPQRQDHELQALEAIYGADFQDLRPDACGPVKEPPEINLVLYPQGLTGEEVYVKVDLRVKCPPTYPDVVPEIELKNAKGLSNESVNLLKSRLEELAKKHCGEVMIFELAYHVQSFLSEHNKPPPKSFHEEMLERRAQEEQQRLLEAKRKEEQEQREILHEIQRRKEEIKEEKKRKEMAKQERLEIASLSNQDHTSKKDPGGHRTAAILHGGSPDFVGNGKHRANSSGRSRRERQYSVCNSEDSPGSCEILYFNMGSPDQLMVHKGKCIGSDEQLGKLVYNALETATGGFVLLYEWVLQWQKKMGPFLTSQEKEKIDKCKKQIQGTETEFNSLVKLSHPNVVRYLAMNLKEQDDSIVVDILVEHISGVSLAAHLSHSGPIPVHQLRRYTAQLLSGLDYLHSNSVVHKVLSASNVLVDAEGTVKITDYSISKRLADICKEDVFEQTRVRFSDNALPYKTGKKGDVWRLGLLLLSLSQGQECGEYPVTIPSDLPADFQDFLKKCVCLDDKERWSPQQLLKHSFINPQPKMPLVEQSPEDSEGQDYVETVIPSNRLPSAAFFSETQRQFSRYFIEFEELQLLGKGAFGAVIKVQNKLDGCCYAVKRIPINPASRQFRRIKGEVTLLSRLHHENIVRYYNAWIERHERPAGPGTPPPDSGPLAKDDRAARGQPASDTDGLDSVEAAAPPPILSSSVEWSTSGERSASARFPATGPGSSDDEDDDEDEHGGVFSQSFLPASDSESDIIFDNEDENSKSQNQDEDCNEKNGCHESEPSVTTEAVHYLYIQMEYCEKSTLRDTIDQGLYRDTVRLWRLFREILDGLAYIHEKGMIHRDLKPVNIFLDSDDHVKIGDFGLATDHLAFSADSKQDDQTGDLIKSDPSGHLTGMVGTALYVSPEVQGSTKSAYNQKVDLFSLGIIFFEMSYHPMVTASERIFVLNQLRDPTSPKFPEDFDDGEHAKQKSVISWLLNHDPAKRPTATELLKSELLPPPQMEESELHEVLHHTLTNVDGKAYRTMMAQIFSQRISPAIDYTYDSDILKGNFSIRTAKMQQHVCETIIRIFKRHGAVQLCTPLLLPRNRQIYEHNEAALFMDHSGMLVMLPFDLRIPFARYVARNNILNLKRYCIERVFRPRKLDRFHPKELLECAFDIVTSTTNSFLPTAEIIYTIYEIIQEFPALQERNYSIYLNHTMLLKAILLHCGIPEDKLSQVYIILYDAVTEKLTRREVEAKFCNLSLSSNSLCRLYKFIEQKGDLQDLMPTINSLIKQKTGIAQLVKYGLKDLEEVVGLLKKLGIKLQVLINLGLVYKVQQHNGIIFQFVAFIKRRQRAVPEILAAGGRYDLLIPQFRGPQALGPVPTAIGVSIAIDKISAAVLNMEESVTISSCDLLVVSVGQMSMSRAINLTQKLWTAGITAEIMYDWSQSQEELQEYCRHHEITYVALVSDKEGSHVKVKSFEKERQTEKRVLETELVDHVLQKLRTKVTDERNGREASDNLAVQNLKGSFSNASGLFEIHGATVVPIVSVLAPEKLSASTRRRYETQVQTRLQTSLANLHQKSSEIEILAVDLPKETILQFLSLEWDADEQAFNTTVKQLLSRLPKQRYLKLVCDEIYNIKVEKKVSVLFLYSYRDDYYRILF
Sequence of GCN2 kinase (Q9P2K8 whole entry): as above

Row | SMILES | IC50 [1] | IC50 [2, 3] | Ki [1] | IC50 ([2]; GCN2 Biomarker (IC50), phosphorylated eIF2α Ser51)
1 | OCC(O)CN1CCN(c2ccnc(-c3cnc4ccc(C(F)(F)F)cn34)n2)CC1c1cn[nH]c1 (stereo not shown) [I-352, 3-(2-(1H-pyrazol-4-yl)-4-(2-(6-(trifluoromethyl)imidazo[1,2-a]pyridin-3-yl)pyrimidin-4-yl)piperazin-1-yl)propane-1,2-diol] | < 10 nM | 500 to 5000 nM |  | 
2 | CC1CC(C(N)=O)CN(c2ccnc(-c3cnc4ccc(C(F)(F)F)cn34)n2)C1 (stereo not shown) [I-149, 5-Methyl-1-[2-(6-trifluoromethyl-imidazo[1,2-a]pyridin-3-yl)-pyrimidin-4-yl]-piperidine-3-carboxylic acid amide] | < 10 nM | < 500 nM | < 10 nM | 
3 | OCC1CN(c2ccnc(-c3cnc4ccc(C(F)(F)F)cn34)n2)CCC1O (stereo not shown) [I-241, 3-(hydroxymethyl)-1-(2-(6-(trifluoromethyl)imidazo[1,2-a]pyridin-3-yl)pyrimidin-4-yl)piperidin-4-ol] | 10 to 100 nM | 500 to 5000 nM |  | 
4 | Cc1noc([C@H]2CN(c3ccnc(-c4cnc5ccc(Cl)cn45)n3)C[C@@H](C)O2)n1 [I-54] |  |  | 10 to 100 nM | 500 to 5000 nM
5 | O=C(c1cnon1)N1CCN(c2ccnc(-c3cnc4ccc(C(F)(F)F)cn34)n2)CC1c1cn[nH]c1 (stereo not shown) [I-441, (2-(1H-pyrazol-4-yl)-4-(2-(6-(trifluoromethyl)imidazo[1,2-a]pyridin-3-yl)pyrimidin-4-yl)piperazin-1-yl)(1,2,5-oxadiazol-3-yl)methanone] | 10 to 100 nM | > 5000 nM |  | 
6 | CS(=O)(=O)NC[C@@H]1CN(c2ccnc(-c3cnc4ccc(C(F)(F)F)cn34)n2)CCO1 [I-1, N-[[(2S)-4-[2-[6-(Trifluoromethyl)imidazo[1,2-a]pyridin-3-yl]pyrimidin-4-yl]morpholin-2-yl]methyl]methanesulfonamide] |  | 500 to 5000 nM | 10 to 100 nM | 
7 | Fc1cc2ncc(-c3nccc(N4CCCC(c5c[nH]cn5)C4)n3)n2cc1Cl (stereo not shown) [I-57, 6-Chloro-7-fluoro-3-{4-[3-(1H-imidazol-4-yl)-piperidin-1-yl]-pyrimidin-2-yl}-imidazo[1,2-a]pyridine] |  | 500 to 5000 nM | 10 to 100 nM | 
8 | NC(=O)C1CN(c2ccnc(-c3cnc4ccc(C(F)(F)F)cn34)n2)CC(F)(F)C1 (stereo not shown) [I-202, 5,5-Difluoro-1-[2-(6-trifluoromethyl-imidazo[1,2-a]pyridin-3-yl)-pyrimidin-4-yl]-piperidine-3-carboxylic acid amide] | < 10 nM | < 500 nM | < 10 nM | 
9 | Cc1n[nH]nc1[C@H]1C[C@@H](C)CN(c2ccnc(-c3cnc4ccc(C(F)(F)F)cn34)n2)C1 [I-408, 3-(4-((3R,5S)-3-methyl-5-(5-methyl-2H-1,2,3-triazol-4-yl)piperidin-1-yl)pyrimidin-2-yl)-6-(trifluoromethyl)imidazo[1,2-a]pyridine] | 10 to 100 nM | 500 to 5000 nM |  | 
10 | CC1CN(c2ccnc(-c3cnc4ccc(Cl)cn34)n2)CC(c2cnn(S(C)(=O)=O)c2)N1S(C)(=O)=O (stereo not shown) [I-301, 6-chloro-3-(4-(3-methyl-4-(methylsulfonyl)-5-(1-(methylsulfonyl)-1H-pyrazol-4-yl)piperazin-1-yl)pyrimidin-2-yl)imidazo[1,2-a]pyridine] | 100 to 1000 nM | 500 to 5000 nM |  | 
11 | COCC1(CN2CCN(c3ccnc(-c4cnc5ccc(C(F)(F)F)cn45)n3)[C@@H](C)[C@@H]2c2cn[nH]c2)CCC1 [I-512, 4-[(2S,3 S)-4-{[1-(methoxymethyl)cyclobutyl]methyl}-2-methyl-3-(1H-pyrazol-4-yl)piperazin-1-yl]-2-[6-(trifluoromethyl)imidazo[1,2-a]pyridin-3-yl]pyrimidine] | 100 to 1000 nM | 500 to 5000 nM |  | 
12 | FC(F)(F)c1ccc2ncc(-c3ccnc(N4CCN(C[C@H]5CCCOC5)[C@H](c5cn[nH]c5)C4)n3)n2c1 [I-545, 3-(2-((R)-3-(1H-pyrazol-4-yl)-4-(((R)-tetrahydro-2H-pyran-3-yl)methyl)piperazin-1-yl)pyrimidin-4-yl)-6-(trifluoromethyl)imidazo[1,2-a]pyridine] | < 10 nM | < 500 nM |  | 
13 | Cc1n[nH]cc1C1CC(F)CN(c2ccnc(-c3cnc4ccc(C(F)(F)F)cn34)n2)C1 (stereo not shown) [I-357, 3-(4-(3-fluoro-5-(3-methyl-1H-pyrazol-4-yl)piperidin-1-yl)pyrimidin-2-yl)-6-(trifluoromethyl)imidazo[1,2-a]pyridine] | 10 to 100 nM | < 500 nM |  | 
14 | COc1cc(-c2cnc3ccc(Cl)cn23)nc(N2C[C@H](C)C[C@H](c3cn[nH]c3)C2)n1 [I-279, 6-chloro-3-(6-methoxy-2-((3R,5R)-3-methyl-5-(1H-pyrazol-4-yl)piperidin-1-yl)pyrimidin-4-yl)imidazo[1,2-a]pyridine] | 10 to 100 nM | 500 to 5000 nM |  | 
15 | CC1(F)CCCN(c2ccnc(-c3cnc4ccc(C(F)(F)F)cn34)n2)C1 (stereo not shown) [I-226, 3-(4-(3-fluoro-3-methylpiperidin-1-yl)pyrimidin-2-yl)-6-(trifluoromethyl)imidazo[1,2-a]pyridine] | 100 to 1000 nM | 500 to 5000 nM |  | 
16 | CC1(C)CN(c2ccnc(-c3cnc4ccc(C(F)(F)F)cn34)n2)CCN1C(=O)C1CCC(=O)CC1 [I-492, 4-(2,2-dimethyl-4-(2-(6-(trifluoromethyl)imidazo[1,2-a]pyridin-3-yl)pyrimidin-4-yl)piperazine-1-carbonyl)cyclohexan-1-one] | 10 to 100 nM | 500 to 5000 nM |  | 
17 | C[C@@H](NS(C)(=O)=O)[C@H]1CN(c2ccnc(-c3cnc4ccc(C(F)(F)F)cn34)n2)CCO1 [I-406, N—((R)-1-((R)-4-(2-(6-(trifluoromethyl)imidazo[1,2-a]pyridin-3-yl)pyrimidin-4-yl)morpholin-2-yl)ethyl)methanesulfonamide] | 10 to 100 nM | 500 to 5000 nM |  | 
18 | C[C@H]1CN(c2nccc(-c3cnc4ccc(C(F)F)cn34)n2)C[C@@H](CNS(C)(=O)=O)C1(F)F (stereo in doubt) [I-41, N-[[-1-[4-[6-(Difluoromethyl)imidazo[1,2-a]pyridin-3-yl]pyrimidin-2-yl]-4,4-difluoro-5-methyl-3-piperidyl]methyl]methanesulfonamide] |  | 500 to 5000 nM | < 10 nM | 
19 | Clc1ccc2ncc(-c3ncnc(N4CCOC(c5cn[nH]c5)C4)n3)n2c1 (stereo not shown) [I-22, 4-[4-(6-Chloroimidazo[1,2-a]pyridin-3-yl)-1,3,5-triazin-2-yl]-2-(1H-pyrazol-4-yl)morpholine] |  | < 500 nM | < 10 nM | 
20 | COc1cc(-c2cnc3ccc(Cl)cn23)nc(N2C[C@@H](C)C[C@@H](c3cn[nH]c3)C2)n1 [I-281, 6-chloro-3-(6-methoxy-2-((3S,5S)-3-methyl-5-(1H-pyrazol-4-yl)piperidin-1-yl)pyrimidin-4-yl)imidazo[1,2-a]pyridine] | 10 to 100 nM | < 500 nM |  | 
21 | C[C@@H]1C[C@@H](NC(=O)OC(C)(C)C)CN(c2ccnc(-c3cnc4ccc(Cl)cn34)n2)C1 [I-252, tert-butyl ((3R,5R)-1-(2-(6-chloroimidazo[1,2-a]pyridin-3-yl)pyrimidin-4-yl)-5-methylpiperidin-3-yl)carbamate] | 100 to 1000 nM | 500 to 5000 nM |  | 
22 | Cc1ncc(CN2CCN(c3ccnc(-c4cnc5ccc(C(F)(F)F)cn45)n3)CC2c2cn[nH]c2)[nH]1 (stereo not shown) [I-372, 3-(4-(4-((2-methyl-1H-imidazol-5-yl)methyl)-3-(1H-pyrazol-4-yl)piperazin-1-yl)pyrimidin-2-yl)-6-(trifluoromethyl)imidazo[1,2-a]pyridine] | < 10 nM | 500 to 5000 nM |  | 
23 | CC1(C)CN(c2ccnc(-c3cnc4ccc(C(F)(F)F)cn34)n2)CCN1S(C)(=O)=O [I-339, 3-(4-(3,3-dimethyl-4-(methylsulfonyl)piperazin-1-yl)pyrimidin-2-yl)-6-(trifluoromethyl)imidazo[1,2-a]pyridine] | 10 to 100 nM | 500 to 5000 nM |  | 
24 | C[C@H](NS(C)(=O)=O)[C@@H]1[C@H](C)N(c2ccnc(-c3cnc4ccc(C(F)(F)F)cn34)n2)CCN1C1CC1 [I-500, N—((S)-1-((2S,3 S)-1-cyclopropyl-3-methyl-4-(2-(6-(trifluoromethyl)imidazo[1,2-a]pyridin-3-yl)pyrimidin-4-yl)piperazin-2-yl)ethyl)methanesulfonamide] | 100 to 1000 nM | 500 to 5000 nM |  | 
25 | FC(F)(F)c1ccc2ncc(-c3nccc(N4CCN(Cc5cocn5)C(c5cn[nH]c5)C4)n3)n2c1 (stereo not shown) [I-353, 4-((2-(1H-pyrazol-4-yl)-4-(2-(6-(trifluoromethyl)imidazo[1,2-a]pyridin-3-yl)pyrimidin-4-yl)piperazin-1-yl)methyl)oxazole] | < 10 nM | < 500 nM |  | 
26 | C[C@H]1CN(c2nccc(-c3cnc4cc(F)c(Cl)cn34)n2)C[C@@H](c2cn[nH]c2)O1 [I-270, (2S,6R)-4-(4-(6-chloro-7-fluoroimidazo[1,2-a]pyridin-3-yl)pyrimidin-2-yl)-2-methyl-6-(1H-pyrazol-4-yl)morpholine] | < 10 nM | < 500 nM |  | 
27 | Cc1noc([C@@H]2CN(c3ccnc(-c4cnc5ccc(Cl)cn45)n3)C[C@H](C)O2)n1 [I-62] |  | 500 to 5000 nM | 10 to 100 nM | 
28 | Cc1nn(C)cc1[C@@H]1CN(c2nccc(-c3cnc4ccc(C(F)(F)F)cn34)n2)C[C@H](C)O1 [I-157, (2R,6S)-2-(1,3-dimethyl-1H-pyrazol-4-yl)-6-methyl-4-(4-(6-(trifluoromethyl)imidazo[1,2-a]pyridin-3-yl)pyrimidin-2-yl)morpholine] | 100 to 1000 nM | < 500 nM |  | 
